Experiments:
Type in all cases: in vivo
[1] = tested on: Echinochloa crus-galli; experiment: Glasshouse assay for herbicidal activity, post-emergence, ECHCG; details: visual 13 days after application, 100%=total damage; for pest or weed control at 30 g/ha / pest or weed control at 250 g/ha: Echinochloa crus-galli, 312 h, read-out: Percentage phytotoxicity ECHCG
Protocol: (§1) Seeds of a variety of test plant species were sown in standard soil ** in pots. After cultivation for one day (pre-emergence) or after 8 days cultivation (post-emergence) under controlled conditions in a glasshouse (at 24/16° C., day/night; 14 hours light; 65% humidity), the plants were sprayed with an aqueous spray solution derived from the formulation of the technical active ingredient (the test herbicide) in acetone/water (50:50) solution containing 0.5% Tween 20 (polyoxyethylene sorbitan monolaurate, CAS Reg. No. 9005-64-5). The test plants were then grown on under controlled conditions in a glasshouse (at 24/16° C., day/night; 14 hours light; 65% humidity) and watered twice daily. 13 Days after application of the test herbicide, for pre- and post-emergence, the test was evaluated visually for percentage phytotoxicity to each plant (where 100%=total damage to plant; 0%=no damage to plant). Generally, each test herbicide is only tested on 1 plant per plant species for each application rate tested and for each application timing. The “standard soil” in Biological Example 1 is usually a “sand” or “sandy loam” type of soil. Biological Example 1—Post-Emergence Application—Herbicidal Activity Results (Percentage Phytotoxicity) Dicotyledonous weeds: ABUTH=Abutilon theophrasti; AMARE=Amaranthus retroflexus. Grassy monocotyledonous weeds: SETFA=Setaria faberi; ALOMY=Alopecurus myosuroides; ECHCG=Echinochloa crus-galli; ZEAMX=Zea mays (corn, maize, e.g. volunteer corn).

[2] = tested on: Zea mays (corn, maize, e.g. volunteer corn); experiment: Glasshouse assay for herbicidal activity, post-emergence, ZEAMX; details: visual 13 days after application, 100%=total damage; for pest or weed control at 30 g/ha / pest or weed control at 250 g/ha: Zea mays, 312 h, read-out: Percentage phytotoxicity ZEAMX
Protocol: as §1

[3] = tested on: Abutilon theophrasti; experiment: Glasshouse assay for herbicidal activity, post-emergence, ABUTH; details: visual 13 days after application, 100%=total damage; for pest or weed control at 30 g/ha / pest or weed control at 250 g/ha: Abutilon theophrasti, 312 h, read-out: Percentage phytotoxicity ABUTH
Protocol: as §1

[4] = tested on: Setaria faberi; experiment: Glasshouse assay for herbicidal activity, post-emergence, SETFA; details: visual 13 days after application, 100%=total damage; for pest or weed control at 30 g/ha / pest or weed control at 250 g/ha: Setaria faberi, 312 h, read-out: Percentage phytotoxicity SETFA
Protocol: as §1

[5] = tested on: Amaranthus retroflexus; experiment: Glasshouse assay for herbicidal activity, post-emergence, AMARE; details: visual 13 days after application, 100%=total damage; for pest or weed control at 30 g/ha / pest or weed control at 250 g/ha: Amaranthus retroflexus, 312 h, read-out: Percentage phytotoxicity AMARE
Protocol: as §1

[6] = tested on: Alopecurus myosuroides; experiment: Glasshouse assay for herbicidal activity, post-emergence, ALOMY; details: visual 13 days after application, 100%=total damage; for pest or weed control at 30 g/ha / pest or weed control at 250 g/ha: Alopecurus myosuroides, 312 h, read-out: Percentage phytotoxicity ALOMY
Protocol: as §1

Compound	Percentage phytotoxicity ECHCG ([1]; 250 g/ha) [%]	Percentage phytotoxicity ZEAMX ([2]; 250 g/ha) [%]	Percentage phytotoxicity ABUTH ([3]; 250 g/ha) [%]	Percentage phytotoxicity SETFA ([4]; 250 g/ha) [%]	Percentage phytotoxicity AMARE ([5]; 250 g/ha) [%]	Percentage phytotoxicity ALOMY ([6]; 250 g/ha) [%]	pest or weed control at 30 g/ha [1] [%]	pest or weed control at 250 g/ha ([1]; 250 g/ha) [%]	pest or weed control at 30 g/ha [2] [%]	pest or weed control at 250 g/ha ([2]; 250 g/ha) [%]	pest or weed control at 30 g/ha [3] [%]	pest or weed control at 250 g/ha ([3]; 250 g/ha) [%]	pest or weed control at 30 g/ha [4] [%]	pest or weed control at 250 g/ha ([4]; 250 g/ha) [%]	pest or weed control at 30 g/ha [5] [%]	pest or weed control at 250 g/ha ([5]; 250 g/ha) [%]	pest or weed control at 30 g/ha [6] [%]	pest or weed control at 250 g/ha ([6]; 250 g/ha) [%]
4-(2,6-Dimethoxy-4-prop-1-ynyl-phenyl)-2,2,6,6-tetramethyl-tetrahydropyran-3,5-dione [Compound A2]	70	70	10	90	0	90	–	–	–	–	–	–	–	–	–	–	–	–
CC#Cc1ccc(C2C(=O)C3CCC(C3)C2=O)c(OC)c1 (centres unmarked) [Compound A1, 3-(2-methoxy-4-prop-1-ynyl-phenyl)bicyclo[3.2.1]octane-2,4-dione]	–	–	–	–	–	–	100	100	100	100	10	20	90	100	30	50	100	100
CC#Cc1cc(OC)c(C2C(=O)C3CCC(C3)C2=O)c(C(F)(F)F)c1 (centres unmarked) [Compound A3, 3-[2-methoxy-4-prop-1-ynyl-6-(trifluoromethyl)phenyl]bicyclo[3.2.1]octane-2,4-dione]	–	–	–	–	–	–	70	100	90	90	0	0	70	90	0	0	40	70
CC#Cc1ccc(C2C(=O)C3CCC(C3)C2=O)c(OCC(F)(F)F)c1 (centres unmarked) [Compound A4]	–	–	–	–	–	–	20	40	30	60	0	0	40	70	0	0	10	30
CC#Cc1ccc(C2C(=O)C3CCC(C3)C2=O)c(OC(F)F)c1 (centres unmarked) [Compound A5]	–	–	–	–	–	–	90	100	100	100	0	0	60	90	0	0	50	80
CC#Cc1ccc(C2C(=O)C3CCC(C3)C2=O)c(OCCC)c1 (centres unmarked) [Compound A6]	–	–	–	–	–	–	40	70	40	80	0	0	10	50	0	0	–	–
CC#Cc1cc(OC)c(C2C(=O)C3CCC(C3)C2=O)c(OC)c1 (centres unmarked) [Compound A7]	–	–	–	–	–	–	100	100	100	100	0	10	100	100	0	0	90	100
CC#Cc1ccc(C2C(=O)C3CCC(C3)C2=O)c(OC(F)(F)F)c1 (centres unmarked) [Compound A8]	–	–	–	–	–	–	–	100	–	100	–	80	–	100	–	10	–	100
CC#Cc1ccc(C2C(=O)CC(CCSC)CC2=O)c(OC)c1 (centres unmarked) [Compound A9]	–	–	–	–	–	–	80	90	90	100	20	40	80	90	0	20	30	90
CC#Cc1ccc(C2C(=O)CCCC2=O)c(OC)c1 [Compound A10]	–	–	–	–	–	–	20	30	90	90	0	10	60	70	10	20	0	70
CC#Cc1cc(OC)c(C2C(=O)CCCC2=O)c(OC)c1 [Compound A11, 2-(2,6-dimethoxy-4-prop-1-ynyl-phenyl)cyclohexane-1,3-dione]	–	–	–	–	–	–	100	100	100	100	0	0	100	100	10	30	70	90
CC#Cc1ccc(C2C(=O)CC3(CCOCC3)CC2=O)c(OC)c1 [Compound A12]	–	–	–	–	–	–	100	100	100	100	0	20	100	100	0	30	90	100
CC#Cc1ccc(C2C(=O)C3CCC(C3)C2=O)c(OCC)c1 (centres unmarked) [Compound A14]	–	–	–	–	–	–	70	100	70	90	0	0	50	90	0	0	–	–
CC#Cc1ccc(C2C(=O)C3CCC(C3)C2=O)c(OCCOC)c1 (centres unmarked) [Compound A15, 3-[2-(2-methoxyethoxy)-4-prop-1-ynyl-phenyl]bicyclo[3.2.1]octane-2,4-dione]	–	–	–	–	–	–	10	40	40	80	0	0	50	80	0	0	10	20

Source: patent publication US10662138B2, “Herbicidal propynyl-phenyl compounds” (Syngenta Participations AG, priority 2014, dated 2020)
